Where a SMILES comes first, the peptide text is derived from it. Bridges are numbered along the chain shown (N, C = ends). [ ]: non-standard residue; d: D form. The star is where a group is joined. hPhe(3-Cl-4-CF3) = N[C@@H](CCc1ccc(C(F)(F)F)c(Cl)c1)C(=O)O; NPrPhe(4-CF3) = CCCN[C@@H](Cc1ccc(C(F)(F)F)cc1)C(=O)O; NMeGly(cPent) = CN[C@H](C(=O)O)C1CCCC1; NMeD = CN[C@@H](CC(=O)O)C(=O)O; NMeL = CN[C@@H](CC(C)C)C(=O)O; Piperidide = C1CCN(*)CC1; Ac4c = NC1(C(=O)O)CCC1; Sar = CNCC(=O)O
Legend:
[1] = system: human lung cancer strain NCI-H441; format: cell-based
How it was run: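 Readout: […] after the ATP-based reagent. Compound: serial dilutions in dimethyl sulfoxide.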

HRAS wild-type protein = HRAS wild-type protein (Homo sapiens, UniProt P01112); test: Binding to HRAS by surface plasmon resonance (SPR), KD and KD ratio to KRAS
How it was run: (§1)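 GDP-loaded biotinylated Avi-tag RAS proteins (E. coli-expressed) captured on a Biotin CAPture chip at ~100–300 RU; single-cycle kinetics at 30°C, 100 µL/min, 75 s injections of rising compound concentrations. HBS pH 7.4 running buffer with 1 mM DTT, 10 mM MgCl2, 10 µM GDP, 4% DMSO. KD from 1:1 binding fit.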

[2] = target: GDP-bound NRAS wild-type protein (Homo sapiens, UniProt P01111); test: Binding to NRAS by surface plasmon resonance (SPR), KD and KD ratio to KRAS
How it was run: as §1

[3] = ratio of KD value for HRAS wild-type protein to KD value for KRAS (SPR)
[4] = ratio of KD value for GDP-bound NRAS wild-type protein to KD value for KRAS (SPR)
[5] = ratio of the KD value with respect to HRAS wild-type protein to the KD value with respect to KRAS
[6] = ratio of the KD value with respect to GDP-bound NRAS wild-type protein to the KD value with respect to KRAS
[7] = ratio of KD for HRAS wild-type protein to KD for KRAS
[8] = ratio of KD for GDP-bound NRAS wild-type protein to KD for KRAS

Sequence of GDP-bound NRAS wild-type protein (P01111 whole entry): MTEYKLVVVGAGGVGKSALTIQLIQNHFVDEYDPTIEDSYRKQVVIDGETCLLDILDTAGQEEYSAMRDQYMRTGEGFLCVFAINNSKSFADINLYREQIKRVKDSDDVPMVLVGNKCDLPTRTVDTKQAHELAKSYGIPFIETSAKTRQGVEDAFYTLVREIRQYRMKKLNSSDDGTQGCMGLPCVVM
Sequence of HRAS wild-type protein (P01112 whole entry): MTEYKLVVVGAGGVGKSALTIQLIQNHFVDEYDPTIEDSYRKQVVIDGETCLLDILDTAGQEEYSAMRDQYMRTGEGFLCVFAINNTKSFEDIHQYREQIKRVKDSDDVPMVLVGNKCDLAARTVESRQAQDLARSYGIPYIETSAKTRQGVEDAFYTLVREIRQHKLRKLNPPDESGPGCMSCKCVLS

Compound	IC50 [1]	HRAS /KRAS (HRAS wild-type protein; [3])	NRAS /KRAS [2, 4]	HRAS /KRAS (HRAS wild-type protein; [5])	NRAS /KRAS [2, 6]	HRAS /KRAS (HRAS wild-type protein; [7])	NRAS /KRAS [2, 8]
CCO[C@@H]1C[C@H]2C(=O)NC3(CCC3)C(=O)N(C)[C@@H](C3CCCC3)C(=O)N3CCC[C@@H]3CC(=O)N(C)[C@@H](CC3CC3)C(=O)N[C@@H]([C@@H](C)CC)C(=O)N(C)CC(=O)N(C)[C@H]3C/C=C\CCN(C3=O)[C@@H](Cc3ccc(C(F)(F)F)cc3)C(=O)N(C)CC(=O)N[C@@H](CCc3ccc(C(F)(F)F)c(OC)c3)C(=O)N2C1 [PP1616]	0.0335 µM	B (a compound having 3 or more and less than 10 is denoted as B)	B (a compound having 3 or more and less than 10 is denoted as B)	–	–	–	–
CC[C@H](C)[C@@H]1NC(=O)[C@H](CC)N(C)C(=O)C[C@@H](C(=O)N(C)C)N(C)C(=O)[C@H](C2CCCC2)N(C)C(=O)C2(CC(C)(C)C2)NC(=O)[C@@H]2C[C@H](C)CN2C(=O)[C@H](CCc2ccc(C(F)(F)F)c(OC)c2)NC(=O)CN(C)C(=O)[C@H](Cc2ccc(C)cc2)N2CC/C=C\C[C@@H](C2=O)N(C)C(=O)CN(C)C1=O [PP1836]	0.0107 µM	B (a compound having 3 or more and less than 10 is denoted as B)	A (a compound having 10 or more and less than 20 is denoted as A)	–	–	–	–
CCO[C@@H]1C[C@H]2C(=O)NC3(CC(C)(C)C3)C(=O)N(C)[C@@H](C3CCCC3)C(=O)N(C)[C@H](C(=O)N(C)C)CC(=O)N(C)[C@@H](CC(C)C)C(=O)N[C@@H]([C@@H](C)CC)C(=O)N(C)CC(=O)N(C)[C@H]3C/C=C\CCN(C3=O)[C@@H](Cc3ccc(C(F)(F)F)cc3)C(=O)N(C)CC(=O)N[C@@H](CCc3ccc(C(F)(F)F)c(F)c3)C(=O)N2C1 [PP1931]	0.0095 µM	–	–	B (a compound having 3 or more and less than 10 is denoted as B)	A (a compound having 10 or more and less than 20 is denoted as A)	–	–
CCO[C@@H]1C[C@H]2C(=O)NC3(CC(F)(F)C3)C(=O)N(C)[C@@H](C3CCCC3)C(=O)N(C)[C@H](C(=O)N3CCOCC3)CC(=O)N(C)[C@@H](CC(C)C)C(=O)N[C@@H]([C@@H](C)CC)C(=O)N(C)CC(=O)N(C)[C@H]3C[C@H]4C[C@H]4CN(C3=O)[C@@H](Cc3ccc(C(F)(F)F)cc3)C(=O)N(C)CC(=O)N[C@@H](CCc3cc(F)c(C(F)(F)F)c(F)c3)C(=O)N2C1 [PP0831]	0.0037 µM	–	–	–	–	C (A compound having a KD ratio of 0.1 or more and less than 3 is denoted as C)	C (A compound having a KD ratio of 0.1 or more and less than 3 is denoted as C)
CCCN1C(=O)CN(C)C(=O)CN(C)C(=O)[C@H]([C@@H](C)CC)NC(=O)[C@H](CC(C)C)N(C)C(=O)C[C@@H](C(=O)N2CCCCC2)N(C)C(=O)[C@H](C2CCCC2)N(C)C(=O)C2(CCC2)NC(=O)[C@@H]2CCCN2C(=O)[C@H](CCc2ccc(C(F)(F)F)c(Cl)c2)NC(=O)CN(C)C(=O)[C@@H]1Cc1ccc(C(F)(F)F)cc1 [PP1930] ([NMeL]I[Sar][Sar][NPrPhe(4-CF3)][Sar][hPhe(3-Cl-4-CF3)]P[Ac4c][NMeGly(cPent)][NMeD]-Piperidide; lactam N-11)	0.007 µM	–	–	C (A compound having a KD ratio of 0.1 or more and less than 3 is denoted as C)	B (a compound having 3 or more and less than 10 is denoted as B)	–	–
CCO[C@@H]1C[C@H]2C(=O)NC3(CCC3)C(=O)N(C)[C@@H](C3CCCC3)C(=O)N(C)[C@H](C(=O)N(C)C)CC(=O)N(C)[C@@H](COC)C(=O)N[C@@H]([C@@H](C)CC)C(=O)NCC(=O)N(C)[C@H]3CCCCCN(C3=O)[C@@H](Cc3ccc(C(F)(F)F)cc3)C(=O)N(C)CC(=O)N[C@@H](CCc3cc(F)c(C(F)(F)F)c(F)c3)C(=O)N2C1 [PP0859]	0.0224 µM	–	–	–	–	B (a compound having 3 or more and less than 10 is denoted as B)	B (a compound having 3 or more and less than 10 is denoted as B)

— patent EP4603105A1, “PHARMACEUTICAL COMPOSITION CONTAINING CYCLIC COMPOUND HAVING SELECTIVE KRAS INHIBITORY EFFECT AGAINST HRAS AND NRAS” (CHUGAI SEIYAKU KABUSHIKI KAISHA, priority 2022, dated 2024)
